Assays:
Assay type in all cases: in vivo
[1] = tested on: Alopecurus myosuroides (ALOMY); assay: Herbicidal pre-emergence action; details: graded after ca. 3 weeks
Outline: (§1)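 Sandy loam, seeds covered with soil → compound (WP or EC, +0.5% additive, 600 l water/ha, ≤1280 g/ha) onto covering soil → greenhouse, optimum conditions → visual % damage at ~3 wk vs untreated.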

[2] = tested on: Avena fatua (AVEFA); assay: Herbicidal pre-emergence action; details: graded after ca. 3 weeks
Outline: as §1

[3] = tested on: Digitaria sanguinalis (DIGSA); assay: Herbicidal pre-emergence action; details: graded after ca. 3 weeks
Outline: as §1

[4] = tested on: Echinochloa crus-galli (ECHCG); assay: Herbicidal pre-emergence action; details: 1280 g/ha, graded after ca. 3 weeks
Outline: as §1

[5] = tested on: Lolium multiflorum (LOLMU); assay: Herbicidal pre-emergence action; details: 1280 g/ha, graded after ca. 3 weeks
Outline: as §1

[6] = tested on: Lolium rigidum (LOLRI); assay: Herbicidal pre-emergence action; details: 320 g/ha, graded after ca. 3 weeks
Outline: as §1

[7] = tested on: Polygonum convolvulus (POLCO); assay: Herbicidal pre-emergence action; details: graded after ca. 3 weeks
Outline: as §1

[8] = tested on: Setaria viridis (SETVI); assay: Herbicidal pre-emergence action; details: graded after ca. 3 weeks
Outline: as §1

[9] = tested on: Viola tricolor (VIOTR); assay: Herbicidal pre-emergence action; details: 320 g/ha, graded after ca. 3 weeks
Outline: as §1

[10] = tested on: Alopecurus myosuroides (ALOMY); assay: Herbicidal post-emergence action; details: 1280 g/ha, assessed after ca. 3 weeks
Outline: (§2)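 Greenhouse weeds in sandy loam were sprayed at single-leaf stage, 2–3 weeks after sowing, with WP or EC formulations plus 0.5% additive in 600 l water/ha, at 1280 or 320 g/ha. Visual % effect vs untreated controls after about 3 weeks (100% = dead).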

[11] = tested on: Avena fatua (AVEFA); assay: Herbicidal post-emergence action; details: 1280 g/ha, assessed after ca. 3 weeks
Outline: as §2

[12] = tested on: Cyperus esculentus (CYPES); assay: Herbicidal post-emergence action; details: 1280 g/ha, assessed after ca. 3 weeks
Outline: as §2

[13] = tested on: Digitaria sanguinalis (DIGSA); assay: Herbicidal post-emergence action; details: assessed after ca. 3 weeks
Outline: as §2

[14] = tested on: Echinochloa crus-galli (ECHCG); assay: Herbicidal post-emergence action; details: 1280 g/ha, assessed after ca. 3 weeks
Outline: as §2

[15] = tested on: Lolium multiflorum (LOLMU); assay: Herbicidal post-emergence action; details: 1280 g/ha, assessed after ca. 3 weeks
Outline: as §2

[16] = tested on: Lolium rigidum (LOLRI); assay: Herbicidal post-emergence action; details: 320 g/ha, assessed after ca. 3 weeks
Outline: as §2

[17] = tested on: Setaria viridis (SETVI); assay: Herbicidal post-emergence action; details: 1280 g/ha, assessed after ca. 3 weeks
Outline: as §2

[18] = tested on: Brassica napus (BRSNW); assay: Pre-emergence effects on crop plants; details: 320 g/ha, crop plant
Source text: (§3) Seeds of mono- and dicotyledonous weed plants and crop plants were sown, in plastic or organic planting pots, in sandy loam and covered with soil. The compounds according to the invention, formulated in the form of wettable powders (WP) or as emulsifiable concentrates (EC), were applied to the surface of the covering soil as aqueous suspension or emulsion, with the addition of 0.5% of an additive, at an application rate of 600 1 of water/ha (converted).
(§4) Following treatment, the pots were placed in a greenhouse and kept under optimum growth conditions for the test plants. The visual grading of the damage to the test plants was carried out after ca. 3 weeks in comparison to untreated controls (herbicidal effect in percent (%): 100% effect=plants have died off, 0% effect=as control plants).
(§5) Tables C1 to C3 below show the effects of selected compounds of the general formula (I) according to table 1 on various crop plants and an application rate corresponding to 320 g/ha or below obtained by the experimental procedure mentioned above in biology section A.

[19] = tested on: Glycine max (GLXMA); assay: Pre-emergence effects on crop plants; details: 320 g/ha, crop plant
Source text: as §3, §4, §5

[20] = tested on: Zea Mays (ZEAMX); assay: Pre-emergence effects on crop plants; details: crop plant
Source text: as §3, §4, §5

[21] = tested on: Brassica napus (BRSNW); assay: Post-emergence effects on crop plants; details: crop plant Brassica napus (BRSNW)
Source text: (§6) Seeds of mono- and dicotyledonous weed plants and crop plants were sown, in plastic or organic planting pots, in sandy loam, covered with soil and grown in a greenhouse under controlled growth conditions. 2 to 3 weeks after sowing, the test plants were sprayed in the single-leaf stage. The compounds according to the invention, formulated in form of wettable powders (WP) or as emulsifiable concentrates (EC), were sprayed onto the green plant parts as aqueous suspension or emulsion, with the addition of 0.5% of an additive, at an application rate of 600 1 of water/ha (converted). The test plants were placed in the greenhouse for ca. 3 weeks under optimum growth conditions, and then the effect of the preparations was assessed visually in comparison with untreated controls (herbicidal effect in percent (%): 100% effect=plants have died off, 0% effect=as control plants).
(§7) Tables D1 to D3 below show the effects of selected compounds of the general formula (I) according to table 1 on various crop plants and an application rate corresponding to 320 g/ha or below obtained by the experimental procedure mentioned above in biology section B.

[22] = tested on: Glycine max (GLXMA); assay: Post-emergence effects on crop plants; details: 320 g/ha, crop plant
Source text: as §6, §7

[23] = tested on: Zea Mays (ZEAMX); assay: Post-emergence effects on crop plants; details: crop plant
Source text: as §6, §7

[24] = tested on: Poa annua (POAAN); assay: Herbicidal pre-emergence action; details: graded after ca. 3 weeks
Outline: as §1

[25] = tested on: Poa annua (POAAN); assay: Herbicidal post-emergence action; details: assessed after ca. 3 weeks
Outline: as §2

[26] = tested on: Pharbitis purpurea (PHBPU); assay: Herbicidal pre-emergence action; details: 1280 g/ha, graded after ca. 3 weeks
Outline: as §1

[27] = tested on: Cyperus esculentus (CYPES); assay: Herbicidal pre-emergence action; details: 1280 g/ha, graded after ca. 3 weeks
Outline: as §1

[28] = tested on: Veronica persica (VERPE); assay: Herbicidal pre-emergence action; details: 1280 g/ha, graded after ca. 3 weeks
Outline: as §1

[29] = tested on: Amaranthus retroflexus (AMARE); assay: Herbicidal pre-emergence action; details: 1280 g/ha, graded after ca. 3 weeks
Outline: as §1

[30] = tested on: Polygonum convolvulus (POLCO); assay: Herbicidal post-emergence action; details: 1280 g/ha, assessed after ca. 3 weeks
Outline: as §2

[31] = tested on: Amaranthus retroflexus (AMARE); assay: Herbicidal post-emergence action; details: 1280 g/ha, assessed after ca. 3 weeks
Outline: as §2

[32] = tested on: Stellaria media (STEME); assay: Herbicidal post-emergence action; details: 1280 g/ha, assessed after ca. 3 weeks
Outline: as §2

Row | SMILES | Pre-emergence activity against ALOMY ([1]; 1280 g/ha) [%] | Pre-emergence activity against AVEFA ([2]; 1280 g/ha) [%] | Pre-emergence activity against DIGSA ([3]; 320 g/ha) [%] | Pre-emergence activity against ECHCG [4] [%] | Pre-emergence activity against LOLMU [5] [%] | Pre-emergence activity against LOLRI [6] [%] | Post-emergence activity against ALOMY [10] [%] | Post-emergence activity against AVEFA [11] [%] | Post-emergence activity against DIGSA ([13]; 320 g/ha) [%] | Post-emergence activity against ECHCG [14] [%] | Post-emergence activity against LOLMU [15] [%] | Post-emergence activity against LOLRI [16] [%] | Post-emergence activity against SETVI [17] [%] | Pre-emergence activity against POLCO ([7]; 1280 g/ha) [%] | Pre-emergence activity against SETVI ([8]; 1280 g/ha) [%] | further results
1 | O=C(O)CC1CCC(=O)N1Cc1cccc(F)c1F (single isomer, unassigned) [Example I-014] | 100 | 100 | 100 | 80 | 90 | 90 | 80 | 80 | 80 | 90 | 80 | 80 | 90 |  |  | Pre-emergence activity against POLCO ([7]; 320 g/ha): 90%; Pre-emergence activity against SETVI ([8]; 320 g/ha): 90%; Pre-emergence activity against VIOTR [9]: 90%; Post-emergence activity against CYPES [12]: 80%; pre-emergence activity against BRSNW (crop damage) [18]: 0%; pre-emergence activity against GLXMA (crop damage) [19]: 0%; pre-emergence activity against ZEAMX (crop damage) ([20]; 80 g/ha): 0%; post-emergence activity against BRSNW ([21]; application rate 80 g/ha): 0%; post-emergence activity against GLXMA (crop damage) [22]: 0%; post-emergence activity against ZEAMX (crop damage) ([23]; 80 g/ha): 0%
2 | O=C(CC1CCC(=O)N1Cc1cccc(F)c1F)Nc1ncns1 (centres unmarked) [Example I-193, 2-[1-[(2,3-difluorophenyl)methyl]-5-oxo-pyrrolidin-2-yl]-N-(1,2,4-thiadiazol-5-yl)acetamide] |  |  |  |  |  |  |  |  |  |  |  |  |  |  |  | Pre-emergence activity against POAAN ([24]; 1280 g/ha): 90%; Post-emergence activity against POAAN ([25]; 1280 g/ha): 90%
3 | O=C(CC1CCC(=O)N1Cc1cccc(F)c1F)NCC(F)(F)F (racemic) [Example I-090] |  |  |  |  |  |  |  |  |  |  |  |  |  |  |  | Pre-emergence activity against PHBPU [26]: 100%
4 | O=C(O)CC1CCC(=O)N1Cc1cccc(Cl)c1F (racemic) [Example I-001, 2-[1-[(3-chloro-2-fluorophenyl)methyl]-5-oxo-pyrrolidin-2-yl]acetic acid] | 90 | 100 | 100 | 80 | 90 | 90 | 90 | 90 | 90 | 90 | 100 | 80 | 80 |  |  | Pre-emergence activity against ALOMY ([1]; 320 g/ha): 80%; Pre-emergence activity against AVEFA ([2]; 320 g/ha): 100%; Pre-emergence activity against CYPES [27]: 80%; Pre-emergence activity against POLCO ([7]; 320 g/ha): 80%; Pre-emergence activity against SETVI ([8]; 320 g/ha): 100%; Pre-emergence activity against VERPE [28]: 90%; post-emergence activity against BRSNW ([21]; application rate 320 g/ha): 0%
5 | COC(=O)C1(NC(=O)CC2CCC(=O)N2Cc2cccc(F)c2F)CC1 (racemic) [Example I-048] | 80 | 90 |  |  | 80 |  |  |  |  |  |  |  |  |  |  | Pre-emergence activity against AMARE [29]: 90%
6 | C=CCOC(=O)CC1CCC(=O)N1Cc1cccc(F)c1F (racemic) [Example I-021] | 90 | 100 |  | 80 | 90 |  | 80 | 80 |  | 90 | 90 |  | 90 | 80 | 80 | Post-emergence activity against CYPES [12]: 80%; Post-emergence activity against POLCO [30]: 80%
7 | CC1(C)CCC(=O)C(C(=O)CC2CCC(=O)N2Cc2cccc(F)c2F)C1=O (racemic) [Example I-178] | 90 | 90 |  | 90 |  |  |  | 80 |  | 90 |  |  |  | 90 |  | Pre-emergence activity against PHBPU [26]: 90%; Post-emergence activity against AMARE [31]: 100%; Post-emergence activity against STEME [32]: 80%
8 | O=C(O)CC1CCC(=O)N1Cc1ccc(F)c(F)c1F (centres unmarked) [Example I-192, [5-Oxo-1-(2,3,4-trifluorobenzyl)pyrrolidin-2-yl]acetic acid] | 90 |  | 90 | 80 |  | 90 |  |  |  | 90 |  |  |  |  | 90 | Pre-emergence activity against DIGSA ([3]; 1280 g/ha): 90%; Pre-emergence activity against POAAN ([24]; 320 g/ha): 100%; Pre-emergence activity against POAAN ([24]; 1280 g/ha): 100%; Post-emergence activity against DIGSA ([13]; 1280 g/ha): 90%; Post-emergence activity against POAAN ([25]; 320 g/ha): 100%; Post-emergence activity against POAAN ([25]; 1280 g/ha): 100%; post-emergence activity against BRSNW ([21]; application rate 320 g/ha): 0%
9 | O=C(CC1CCC(=O)N1Cc1cccc(F)c1F)NC1CCCc2ccccc21 (mixture of isomers) [Example I-066] |  |  |  |  |  |  |  |  |  |  |  |  |  |  |  | Post-emergence activity against AMARE [31]: 100%
10 | COCCOC(=O)CC1CCC(=O)N1Cc1cccc(F)c1F (racemic) [Example I-015] | 90 | 100 | 100 | 90 | 80 | 80 |  | 90 | 80 | 100 | 80 | 80 | 90 | 80 | 90 | Pre-emergence activity against CYPES [27]: 80%; Pre-emergence activity against VIOTR [9]: 90%; Post-emergence activity against POLCO [30]: 80%; Post-emergence activity against STEME [32]: 90%; pre-emergence activity against BRSNW (crop damage) [18]: 20%; pre-emergence activity against GLXMA (crop damage) [19]: 0%; pre-emergence activity against ZEAMX (crop damage) ([20]; 320 g/ha): 0%; post-emergence activity against BRSNW ([21]; application rate 80 g/ha): 0%; post-emergence activity against GLXMA (crop damage) [22]: 0%; post-emergence activity against ZEAMX (crop damage) ([23]; 320 g/ha): 0%
